Measured values taken from article PMC9743090, “Induction of Ferroptosis in Glioblastoma and Ovarian Cancers by a New Pyrrole Tubulin Assembly Inhibitor” (Journal of Medicinal Chemistry, 2022).
Several values for one entry are separate records, joined by “and”; a condition that tells them apart may be missing. Equal entries are not always repeated. Entries after “also recorded” stand apart in the source; their conditions may differ.

Assays:
OVCAR-3 OC cells = experiment: OVCAR-3 proliferation assay (cell count, Trypan Blue); assay type: cell-based; settings: Homo sapiens, 48 h incubation, read-out: IC50 cell viability OVCAR-3
Procedure: (§1) The methodology for the evaluation of the growth of human MCF-7 breast carcinoma cells was previously described, except that cells were grown for 96 h for IC50 determinations.[66] U-87 MG and OVCAR-3 proliferation assays were performed plating 10^4 cells/cm^2 in a Multiwell 24. The day after, cells were treated with compound 15, and DMSO was used as a control. Cells were counted 48 h later with a Bürker counting chamber, after dilution in TrypanBlue (#T6146 Sigma-Aldrich).
(§2) All experiments were performed multiple times to reach statistical significance, as specified in the figure legends. Statistical analysis was performed using GraphPad Prism version 7.0 for Mac. IC50 values were calculated by using a nonlinear regression formula, using the percentage of cells number and the logarithmic value of drug concentrations. Data were analyzed with analysis of variance (one-way ANOVA test). Data with *p < 0.05 were considered statistically significant.

[1] = tested on: human primary T lymphocytes; experiment: Toxicity on human primary T lymphocytes (annexin V / propidium iodide flow cytometry); assay type: cell-based; settings: 48 or 72 h
Procedure: Cell lines were obtained from the American Type Culture Collection (ATCC), Rockville, MD. U87 MG cells were cultured in minimum essential medium (MEM) supplemented with 10% fetal bovine serum, 1% penicillin/streptomycin, 1% glutamine, 1% sodium pyruvate, and 1% nonessential amino acids. OVCAR-3 cells were cultured in Dulbecco’s modified eagle medium (DMEM) purchased from Sigma Aldrich (cat. no. D6546) supplemented with 20% fetal bovine serum,1% penicillin/streptomycin, 1% glutamine, 1% sodium pyruvate, 1% Hepes, and 0.01 μg/mL insulin (Sigma Aldrich, cat. no. 19278). […] Healthy donors’ peripheral blood mononuclear cells (PBMCs) were isolated by Lymphoprep (Nycomed) gradient centrifugation. T lymphocytes were negatively selected from PBMCs using a magnetic Dynabeads Untouched Human T Cells Kit (Thermo Fisher Scientific) following the manufacturer’s instructions.
Apoptotic cell death was evaluated using the APC Annexin-V Apoptosis Detection Kit with PI (Thermo Fisher Scientific). Briefly, 1.5 × 10^6/mL cells were cultured in 48-well plates, untreated or treated with different concentrations of 15 for 48 or 72 h. Cells were then stained using annexin-V/APC and propidium iodide according to the manufacturer’s instructions. Cell populations were acquired using a FACS Canto II flow cytometer (BD Biosciences). […]

[2] = tested on: PARP cleavage in U-87 MG cells; experiment: PARP cleavage by western blot in U-87 MG cells; assay type: cell-based, human; settings: immunoblotting
Procedure: Western blotting was performed as previously described[68] by lysing cells in denaturing buffer sodium dodecyl sulfate (SDS)–urea. Extracts were sonicated, their protein quantified, and aliquots were loaded into an SDS–polyacrylamide gel. After electrophoresis, the proteins in the gel were transferred onto a nitrocellulose membrane (cat. no. NBA085C001EA, PerkinElmer), which then was blocked with 5% milk in TBS-T (Tris HCl with 0.1% Tween 20) and incubated with primary antibodies overnight: PARP antibody diluted 1:1000 (cat. no. 9542S CST) and actin antibody diluted 1:10,000 (cat. no. A5441, Sigma Aldrich). The next day, the membrane was extensively washed with TBS-T and incubated with horse radish peroxidase (HRP)-conjugated secondary antibodies diluted in the 5% milk solution. Detection of the HRP signal was performed using ECL (cat. no. K-12045-D50, Advansta).

[3] = tested on: MCF-7 human breast carcinoma cells; experiment: Inhibition of the growth of MCF-7 human breast carcinoma cells; assay type: cell-based
Procedure: as §1

tubulin [4] = experiment: Inhibition of [3H]colchicine binding to tubulin; settings: inhibitor at 1:5:5 μM
Procedure: (§3) The assembly reaction mixtures contained 0.8 M monosodium glutamate (pH 6.6 with HCl in a 2 M stock solution), 10 μM tubulin, 4% (v/v) DMSO, and varying concentrations of the drug. Following a 15 min preincubation at 30 °C, samples were chilled on ice, GTP to 0.4 mM was added, and turbidity development was followed at 350 nm in a temperature-controlled recording spectrophotometer for 20 min at 30 °C. The extent of reaction was measured. Full experimental details were previously described.[63] For the colchicine binding assay, reaction mixtures contained 1.0 μM tubulin, 5.0 μM [^3H]colchicine, and 5.0 or 1.0 μM inhibitor and were incubated for 10 min at 37 °C. Complete details were described previously.[64]

U-87 MG GBM cells = experiment: U-87 MG proliferation assay (cell count, Trypan Blue); assay type: cell-based; settings: Homo sapiens, 48 h incubation, read-out: IC50 cell viability U-87 MG
Procedure: as §1, §2

tubulin [5] = experiment: Inhibition of tubulin polymerization (assembly assay); assay type: biochemical; settings: tubulin at 10 μM, read-out: Tubulin IC50 ± SD
Procedure: as §3

[6] = Metabolic stability in human liver microsomes; assay type: in vitro ADME
Procedure: Mouse (Sigma Aldrich, CD-1 male, pooled) and human microsomes (Sigma Aldrich, human, pooled) at 0.5 mg/mL were preincubated with the test compound 15 dissolved in DMSO at 1 μM in phosphate buffer 50 mM, pH 7.4, and 3 mM MgCl2 for 10 min at 37 °C. The reaction was then started by adding the cofactor mixture solution (NADP, glucose-6-phosphate, glucose-6-phosphate dehydrogenase in 2% NaHCO3). Samples were taken at 0, 10, 30, 45, and 60 min and added to acetonitrile to stop the reaction. Samples were then centrifuged, and the supernatant was analyzed by LC–MS/MS to quantify the amount of the compound. A control sample without the cofactor was always added to check the chemical stability of the test compound. […] A fixed concentration of verapamil was added in every sample as an internal standard for LC–MS/MS analyses. The percentage of the area of the test compound remaining at the various incubation times was calculated with respect to the area of the compound at time 0 min.
The rate constant, k (min^–1), derived for the exponential decay equation (peak area/IS vs time), was used to calculate the rate of Cli.
Samples were analyzed under the following conditions: UPLC Waters coupled with an API 3200 triple-quadrupole (ABSciex); eluents, (phase A) 95% water, 5% acetonitrile + 0.1% HCOOH, (phase B) 5% water, 95% acetonitrile + 0.1% HCOOH; flow rate, 0.3 mL/min; column, Gemini-Nx 5 μm C18 110A (50 × 2.00 mm) at 35 °C; injection volume, 10 μL. Source conditions ESI positive: T 400 °C, Gas 1 30, Gas 2 35, CUR 30, IS 5500, CAD 5.

## COc1cc(C(=O)c2cn(-c3ncccn3)cc2-c2ccco2)cc(OC)c1OC [Compound 15, (4-(Furan-2-yl)-1-(pyrimidyl-2-yl)-1H-pyrrol-3-yl)(3,4,5-trimethoxyphenyl)methanone]
OVCAR-3 OC cells
  IC50: 2.85 nM
[1]; 0.1 μM
  cell viability / toxicity: did not change cell viability; also recorded: not toxic
[1]; 1.0 or 2.5 μM
  cell viability / toxicity: some cytotoxicity was observed
[2]
  concentration from which PARP cleavage occurs: ≥ 20 nM
[3]
  Inhibition of MCF-7 cell growth (in words): strong inhibition
[3]; Homo sapiens, MCF7, inhibition of cell growth, cells grown for 96 h, read-out: MCF-7 IC50 ± SD
  IC50: 4 ± 1 nM
Tubulin [4]
  Inhib. colch. binding 1-5-5 (% ± SD): 88 ± 0.4%
U-87 MG GBM cells
  IC50: 10.1 nM
Tubulin [5]
  IC50: 520 ± 70 nM
[6]; HLM 0.5 mg/mL, 1 μM, n = 2
  Cli ± SD: 36 μL/min/mg protein and 35.9 ± 0.2 μL/min/mg protein
[6]; human, liver microsomes, pH 7.4, HLM 0.5 mg/mL, 1 μM, n = 2, read-out: t1/2 ± SD
  half-life at 1 h, 1 µM: 38.7 ± 0.2 min
[6]; pH 7.4, human liver microsomes, read-out: intrinsic clearance classification
  microsomal CLint at 1 μM: 1.8 to 48 µL/min/mg
